ChEMBL document CHEMBL5291721, “A preclinical secondary pharmacology resource illuminates target-adverse drug reaction associations of marketed drugs” (Nat Commun, 2023)

Key:
Adenosine receptor A1 = molecular target: T1, Adenosine receptor A1 (Homo sapiens, UniProt P30542)
T1 sequence (P30542 whole entry): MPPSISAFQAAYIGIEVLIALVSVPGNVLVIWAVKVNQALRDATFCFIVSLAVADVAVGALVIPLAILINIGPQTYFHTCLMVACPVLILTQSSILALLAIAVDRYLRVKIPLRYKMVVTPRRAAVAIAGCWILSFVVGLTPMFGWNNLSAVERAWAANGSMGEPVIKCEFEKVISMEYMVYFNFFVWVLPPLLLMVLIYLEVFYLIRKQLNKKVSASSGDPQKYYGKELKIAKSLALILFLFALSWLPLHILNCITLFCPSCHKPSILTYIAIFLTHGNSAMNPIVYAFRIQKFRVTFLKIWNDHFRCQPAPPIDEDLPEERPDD

Estrogen receptor = molecular target: T2, Estrogen receptor (Homo sapiens, UniProt P03372); format: functional
T2 sequence (P03372 whole entry): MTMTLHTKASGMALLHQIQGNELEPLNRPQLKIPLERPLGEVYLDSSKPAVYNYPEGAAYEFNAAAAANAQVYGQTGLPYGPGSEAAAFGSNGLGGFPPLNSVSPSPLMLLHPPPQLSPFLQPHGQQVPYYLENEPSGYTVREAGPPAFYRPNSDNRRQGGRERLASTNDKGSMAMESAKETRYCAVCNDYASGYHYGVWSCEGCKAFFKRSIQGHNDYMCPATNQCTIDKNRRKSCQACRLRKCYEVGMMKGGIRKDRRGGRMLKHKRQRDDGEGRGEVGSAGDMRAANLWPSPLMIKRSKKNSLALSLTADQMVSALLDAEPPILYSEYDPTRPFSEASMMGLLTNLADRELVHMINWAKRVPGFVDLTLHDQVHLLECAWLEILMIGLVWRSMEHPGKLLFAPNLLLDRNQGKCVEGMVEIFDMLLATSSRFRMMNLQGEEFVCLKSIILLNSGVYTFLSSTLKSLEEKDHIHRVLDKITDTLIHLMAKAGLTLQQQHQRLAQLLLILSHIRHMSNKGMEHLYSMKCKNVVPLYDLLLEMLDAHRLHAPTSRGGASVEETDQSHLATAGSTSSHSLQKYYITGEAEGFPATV

[1] = molecular target: T3, Peroxisome proliferator-activated receptor gamma (Homo sapiens, UniProt P37231); format: functional
T3 sequence (P37231 whole entry): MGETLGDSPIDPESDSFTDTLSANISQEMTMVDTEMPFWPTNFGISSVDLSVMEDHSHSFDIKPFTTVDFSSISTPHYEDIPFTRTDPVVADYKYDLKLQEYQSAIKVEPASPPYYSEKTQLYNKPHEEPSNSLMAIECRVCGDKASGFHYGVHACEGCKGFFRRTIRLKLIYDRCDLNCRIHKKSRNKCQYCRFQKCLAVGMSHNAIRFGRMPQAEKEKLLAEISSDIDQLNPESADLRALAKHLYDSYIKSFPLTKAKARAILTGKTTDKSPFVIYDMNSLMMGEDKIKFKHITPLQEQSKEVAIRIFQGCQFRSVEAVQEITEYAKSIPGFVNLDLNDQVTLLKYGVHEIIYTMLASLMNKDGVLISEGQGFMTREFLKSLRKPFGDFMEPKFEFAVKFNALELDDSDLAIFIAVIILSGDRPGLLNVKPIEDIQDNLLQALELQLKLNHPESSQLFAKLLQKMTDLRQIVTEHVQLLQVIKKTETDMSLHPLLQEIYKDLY

Progesterone receptor = molecular target: T4, Progesterone receptor (Homo sapiens, UniProt P06401)
T4 sequence (P06401 whole entry): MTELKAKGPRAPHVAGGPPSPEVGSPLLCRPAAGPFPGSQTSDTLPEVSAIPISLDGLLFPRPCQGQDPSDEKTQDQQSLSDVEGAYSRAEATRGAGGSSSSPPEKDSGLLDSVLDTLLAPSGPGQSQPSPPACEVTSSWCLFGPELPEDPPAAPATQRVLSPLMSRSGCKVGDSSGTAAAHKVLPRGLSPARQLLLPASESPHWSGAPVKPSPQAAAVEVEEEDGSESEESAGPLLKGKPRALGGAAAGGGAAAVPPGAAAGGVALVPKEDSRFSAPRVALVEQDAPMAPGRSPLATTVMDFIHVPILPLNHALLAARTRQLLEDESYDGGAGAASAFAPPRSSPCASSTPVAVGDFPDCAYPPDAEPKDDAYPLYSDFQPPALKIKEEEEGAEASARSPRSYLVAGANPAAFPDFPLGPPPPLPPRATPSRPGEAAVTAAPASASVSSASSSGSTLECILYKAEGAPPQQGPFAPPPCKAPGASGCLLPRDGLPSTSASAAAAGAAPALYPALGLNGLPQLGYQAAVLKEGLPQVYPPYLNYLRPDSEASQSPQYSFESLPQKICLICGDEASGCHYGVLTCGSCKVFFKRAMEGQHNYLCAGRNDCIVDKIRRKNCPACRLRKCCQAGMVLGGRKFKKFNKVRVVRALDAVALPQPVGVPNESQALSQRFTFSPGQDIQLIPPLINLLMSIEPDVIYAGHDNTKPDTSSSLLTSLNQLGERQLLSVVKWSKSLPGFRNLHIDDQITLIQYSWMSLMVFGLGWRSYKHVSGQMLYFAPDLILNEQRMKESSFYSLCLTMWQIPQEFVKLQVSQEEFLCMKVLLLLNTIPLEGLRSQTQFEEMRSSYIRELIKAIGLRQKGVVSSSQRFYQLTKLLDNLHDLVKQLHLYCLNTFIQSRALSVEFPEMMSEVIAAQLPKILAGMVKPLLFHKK

[2] = molecular target: Epidermal growth factor receptor (Homo sapiens, UniProt P00533); format: functional
Chain of Epidermal growth factor receptor (P00533 whole entry): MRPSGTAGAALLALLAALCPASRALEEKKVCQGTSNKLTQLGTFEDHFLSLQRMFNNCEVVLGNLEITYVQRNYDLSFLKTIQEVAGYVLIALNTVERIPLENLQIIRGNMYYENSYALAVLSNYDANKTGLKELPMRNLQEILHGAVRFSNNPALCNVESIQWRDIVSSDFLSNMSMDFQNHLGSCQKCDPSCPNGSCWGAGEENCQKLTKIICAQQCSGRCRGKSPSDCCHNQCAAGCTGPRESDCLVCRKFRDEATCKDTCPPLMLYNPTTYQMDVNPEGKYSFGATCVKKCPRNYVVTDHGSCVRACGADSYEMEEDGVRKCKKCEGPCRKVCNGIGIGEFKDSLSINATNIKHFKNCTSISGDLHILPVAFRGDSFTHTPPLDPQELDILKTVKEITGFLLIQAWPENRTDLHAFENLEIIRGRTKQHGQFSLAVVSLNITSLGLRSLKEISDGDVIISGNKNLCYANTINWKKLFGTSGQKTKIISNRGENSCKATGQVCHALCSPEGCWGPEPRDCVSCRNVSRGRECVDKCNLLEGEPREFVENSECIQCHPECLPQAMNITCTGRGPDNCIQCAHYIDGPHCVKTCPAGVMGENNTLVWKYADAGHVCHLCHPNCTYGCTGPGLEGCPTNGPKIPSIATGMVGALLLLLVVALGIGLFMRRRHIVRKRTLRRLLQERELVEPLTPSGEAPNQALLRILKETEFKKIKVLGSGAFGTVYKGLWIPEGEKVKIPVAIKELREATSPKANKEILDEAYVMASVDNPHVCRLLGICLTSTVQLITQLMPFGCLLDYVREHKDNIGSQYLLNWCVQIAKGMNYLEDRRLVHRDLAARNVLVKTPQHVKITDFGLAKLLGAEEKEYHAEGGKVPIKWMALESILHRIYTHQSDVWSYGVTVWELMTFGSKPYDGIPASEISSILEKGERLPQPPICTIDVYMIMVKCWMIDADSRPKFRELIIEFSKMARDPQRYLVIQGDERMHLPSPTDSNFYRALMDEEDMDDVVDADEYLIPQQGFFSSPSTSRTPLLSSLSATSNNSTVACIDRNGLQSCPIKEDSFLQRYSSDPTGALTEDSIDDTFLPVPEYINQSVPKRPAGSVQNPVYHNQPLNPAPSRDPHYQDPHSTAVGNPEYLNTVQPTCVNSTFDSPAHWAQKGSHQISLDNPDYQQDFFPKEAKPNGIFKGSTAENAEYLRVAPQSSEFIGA

[3] = molecular target: Vascular endothelial growth factor receptor 2 (Homo sapiens, UniProt P35968); format: functional
Chain of Vascular endothelial growth factor receptor 2 (P35968 whole entry): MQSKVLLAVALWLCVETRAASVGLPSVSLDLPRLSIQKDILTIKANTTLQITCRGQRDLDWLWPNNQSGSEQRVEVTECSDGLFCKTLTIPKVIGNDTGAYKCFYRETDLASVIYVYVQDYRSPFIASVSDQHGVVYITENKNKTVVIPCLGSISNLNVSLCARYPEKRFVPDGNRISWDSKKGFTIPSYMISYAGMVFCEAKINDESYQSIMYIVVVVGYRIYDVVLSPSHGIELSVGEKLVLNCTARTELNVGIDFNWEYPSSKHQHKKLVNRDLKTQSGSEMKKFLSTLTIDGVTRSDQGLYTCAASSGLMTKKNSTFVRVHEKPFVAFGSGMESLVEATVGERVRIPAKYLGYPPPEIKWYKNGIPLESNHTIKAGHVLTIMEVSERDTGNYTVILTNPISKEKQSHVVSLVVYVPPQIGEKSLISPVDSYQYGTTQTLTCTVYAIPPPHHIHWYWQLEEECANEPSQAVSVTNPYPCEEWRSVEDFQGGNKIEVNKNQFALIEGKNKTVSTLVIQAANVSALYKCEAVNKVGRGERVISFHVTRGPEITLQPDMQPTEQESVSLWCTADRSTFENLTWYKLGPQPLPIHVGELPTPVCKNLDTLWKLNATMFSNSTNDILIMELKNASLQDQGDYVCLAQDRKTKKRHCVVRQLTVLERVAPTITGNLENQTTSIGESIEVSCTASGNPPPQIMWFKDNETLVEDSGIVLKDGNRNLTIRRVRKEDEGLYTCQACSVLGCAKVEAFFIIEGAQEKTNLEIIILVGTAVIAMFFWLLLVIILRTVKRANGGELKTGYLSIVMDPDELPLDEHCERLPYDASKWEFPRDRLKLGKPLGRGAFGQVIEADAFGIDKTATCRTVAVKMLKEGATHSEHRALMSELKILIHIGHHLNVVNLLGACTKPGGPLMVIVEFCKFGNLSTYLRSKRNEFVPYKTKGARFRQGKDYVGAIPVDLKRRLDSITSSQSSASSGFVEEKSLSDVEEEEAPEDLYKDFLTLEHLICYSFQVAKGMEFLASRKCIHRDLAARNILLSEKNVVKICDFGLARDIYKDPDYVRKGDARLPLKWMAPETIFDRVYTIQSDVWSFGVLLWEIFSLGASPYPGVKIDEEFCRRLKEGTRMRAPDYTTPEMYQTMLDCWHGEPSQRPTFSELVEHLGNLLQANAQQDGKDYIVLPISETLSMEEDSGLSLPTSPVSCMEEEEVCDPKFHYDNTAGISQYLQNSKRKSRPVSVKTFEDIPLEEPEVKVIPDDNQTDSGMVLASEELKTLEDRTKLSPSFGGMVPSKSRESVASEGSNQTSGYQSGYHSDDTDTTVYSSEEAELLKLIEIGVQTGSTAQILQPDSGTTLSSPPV

Mu-type opioid receptor = Mu-type opioid receptor (Homo sapiens, UniProt P35372); experiment: biochemical; format: functional
Chain of Mu-type opioid receptor (P35372 whole entry): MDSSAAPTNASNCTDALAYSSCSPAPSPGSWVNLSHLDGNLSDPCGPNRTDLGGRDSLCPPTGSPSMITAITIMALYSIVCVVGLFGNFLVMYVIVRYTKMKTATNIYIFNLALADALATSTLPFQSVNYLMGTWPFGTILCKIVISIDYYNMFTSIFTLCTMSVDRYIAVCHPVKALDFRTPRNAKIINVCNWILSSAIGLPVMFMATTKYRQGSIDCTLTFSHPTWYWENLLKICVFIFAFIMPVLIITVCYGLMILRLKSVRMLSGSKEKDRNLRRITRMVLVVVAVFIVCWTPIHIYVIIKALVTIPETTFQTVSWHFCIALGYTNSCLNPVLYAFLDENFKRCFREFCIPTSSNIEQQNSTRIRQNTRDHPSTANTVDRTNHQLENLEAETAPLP
Note: assay procedure not described here.

Row | AC50 (Mu-type opioid receptor) | Structure (SMILES) | AC50 [1] | AC50 (Progesterone receptor) | also measured
1 |  | OC[C@H]1NC[C@H](O)[C@@H](O)[C@H]1O |  |  | AC50 (Adenosine receptor A1): > 30 µM
2 |  | CCOCC(O)COc1ccc(NC(=O)CC[S+](C)C)cc1 (stereo unspecified) | > 30 µM |  | AC50 (Estrogen receptor): > 30 µM
3 |  | O=C(O)[C@@H](S)[C@@H](S)C(=O)O |  |  | AC50 (Adenosine receptor A1): > 30 µM
4 |  | CCOC(=O)[C@H](CCc1ccccc1)N[C@@H](C)C(=O)N1Cc2ccccc2C[C@H]1C(=O)O |  | > 30 µM | 
5 |  | CCC[C@@]1(CCc2ccccc2)CC(O)=C([C@H](CC)c2cccc(NS(=O)(=O)c3ccc(C(F)(F)F)cn3)c2)C(=O)O1 | > 30 µM |  | AC50 [2]: > 30 µM; AC50 [3]: > 30 µM
6 |  | C=CC1=C(C(=O)O)N2C(=O)[C@@H](NC(=O)/C(=N\O)c3csc(N)n3)[C@H]2SC1 |  | > 30 µM | 
7 |  | CC#CC(=O)N1CCC[C@H]1c1nc(-c2ccc(C(=O)Nc3ccccn3)cc2)c2c(N)nccn12 [ACALABRUTINIB] |  |  | AC50 (Adenosine receptor A1): > 30 µM
8 |  | O=C(O)COC(=O)Cc1ccccc1Nc1c(Cl)cccc1Cl [ACECLOFENAC] |  | > 30 µM | 
9 | > 30 µM | CN(C)CCc1c[nH]c2ccc(CS(=O)(=O)N3CCCC3)cc12 [ALMOTRIPTAN] |  |  | 
10 |  | CN(C)CCC=C1c2ccccc2CCc2ccccc21 [AMITRIPTYLINE] |  | > 30 µM | AC50 [3]: > 30 µM
11 |  | CN1CC2c3ccccc3Oc3ccc(Cl)cc3C2C1 (stereo unspecified) [ASENAPINE] | > 30 µM |  | AC50 [2]: > 30 µM; AC50 [3]: > 30 µM; AC50 (Estrogen receptor): > 30 µM
12 |  | CC(=O)Oc1ccccc1C(=O)O [ASPIRIN] |  | > 30 µM | AC50 [3]: > 30 µM
13 |  | Cn1cnc2c(F)c(Nc3ccc(Br)cc3F)c(C(=O)NOCCO)cc21 [BINIMETINIB] | > 30 µM |  | AC50 [2]: > 30 µM; AC50 [3]: > 30 µM; AC50 (Estrogen receptor): > 30 µM
14 | > 30 µM | CC(C)C[C@H](NC(=O)[C@H](Cc1ccccc1)NC(=O)c1cnccn1)B(O)O [BORTEZOMIB] |  |  | 
15 |  | C[C@H](CS)C(=O)N1CCC[C@H]1C(=O)O [CAPTOPRIL] |  | > 30 µM | 
16 | > 30 µM | CN(C)CCOC(c1ccc(Cl)cc1)c1ccccn1 (stereo unspecified) [CARBINOXAMINE] | > 30 µM |  | 
17 | > 30 µM | CCN(CC)CCn1c(=O)c(Cc2ccc(OC)cc2)nc2ccccc21 [CAROVERINE] |  |  | 
18 |  | C[C@H](CCC(=O)O)[C@H]1CC[C@H]2[C@@H]3[C@H](O)C[C@@H]4C[C@H](O)CC[C@]4(C)[C@H]3CC[C@]12C [CHENODIOL] | > 30 µM |  | AC50 [2]: > 30 µM; AC50 [3]: > 3 µM; AC50 (Estrogen receptor): > 30 µM
19 |  | CN(C)CCCC1(c2ccc(F)cc2)OCc2cc(C#N)ccc21 (stereo unspecified) [CITALOPRAM] |  | > 30 µM | AC50 (Adenosine receptor A1): > 30 µM
20 |  | O=C(O)[C@H]1/C(=C/CO)O[C@@H]2CC(=O)N21 [CLAVULANIC ACID] | > 30 µM |  | AC50 (Estrogen receptor): > 30 µM

Row | Structure (SMILES) | AC50 (Mu-type opioid receptor) | AC50 [1] | AC50 (Progesterone receptor) | also measured
21 | CC[N+](CC)(CCNC(=O)C(=O)NCC[N+](CC)(CC)Cc1ccccc1Cl)Cc1ccccc1Cl [AMBENONIUM] | 4.3 µM |  |  | 
22 | NCCCNCCSP(=O)(O)O [AMIFOSTINE] | > 30 µM |  |  | 
23 | O=C(Cc1cccs1)N[C@@H]1C(=O)N2C(C(=O)[O-])=C(C[n+]3ccccc3)CS[C@H]12 [CEPHALORIDINE] | > 30 µM |  |  | AC50 (Adenosine receptor A1): > 30 µM
